# Test results: patent US4552882A, “7-(1-Pyrrolyl) derivatives of 1-ethyl-1,4-dihydro-4-oxoquinoline-3-carboxylic acids and 1-ethyl-1,4-dihydro-4-oxo-1,8-naphthyridine-3-carboxylic acids and their use as antimicrobial agents” (Provesan, SA, priority 1983, dated 1985)
# How the values were obtained:
# Experiment in all cases: MIC in vitro
# Assay type in all cases: cell-based
# [1] = system: Escherichia coli R-1513; conditions: R1513, Dextrose agar, 37° C., 20 hours
# Procedure: (§1) (G. L. Daquet and Y. A. Chabbect, Techniques en bacteriologie (Bacteriological techniques), vol. 3, Flammarion Medecine Sciences, Paris, 1972 and W. B. Hugo and A. D. Rusell, Pharmaceutical Microbiology, Blackwell Scientific Publications, London, (1977)). Antibiotic medium no. 1 (seed agar) (Oxoid CM 327) Tryptone-soya broth (Oxoid CM 129) Ringer's physiological solution 1/4 (oxoid BR 52) Dextrose agar (BBL-11165) 0.1 N NaOH "Escherichia coli" R-1513 Each of the microorganisms is seeded by streaking in tubes of Antibiotic medium No. 1 (seed agar), which are then incubated at 37° C. for 20 hours. Using a culture loop, the cultures are then seeded in tryptone-soyabroth and incubated at 37° C. for 20 hours. The culture obtained is diluted to 1/4 with Ringer's physiological solution, so as to obtain a standardized suspension of 10^7 -10^9 cfu/ml for each organism. Starting from a solution of 1,000 μg/ml in 0.1 N NaOH, each product is diluted in Dextrose agar (previously melted and maintained at 50° C.), with successive dilutions so as to obtain the following concentrations: 64--32--16--8--4--2--1--0.5--0.25--0.125 μg of derivative/ml medium. For each product, the solution of each concentration is subsequently distributed into Petri dishes 10 cm in diameter, with 10 ml of medium per dish and the same number of dishes as microorganisms to be tested. As soon as the medium has cooled, the dishes are seeded with the inoculations using 0.4 ml of inoculation per dish. They are spread with a Driglasky loop and the supernatant is removed. The seeded dishes are incubated at 37° C. for 20 hours.
# [2] = system: Proteus mirabilis ATCC 4675; conditions: ATCC4675, Dextrose agar, 37° C., 20 hours
# Procedure: as §1, with “"Proteus mirabilis" ATCC 4675” for “"Escherichia coli" R-1513”
# [3] = system: Klebsiella pneumoniae ATCC 10031; conditions: ATCC10031, Dextrose agar, 37° C., 20 hours
# Procedure: as §1, with “"Klebsiella pneumoniae" ATCC 10031” for “"Escherichia coli" R-1513”
Structure (SMILES),MIC [1] [µg/mL],MIC [2] [µg/mL],MIC [3] [µg/mL]
"CCn1cc(C(=O)O)c(=O)c2cc(F)c(-n3cccc3)nc21 [Example 4, 1-ethyl-1,4-dihydro-4-oxo-6-fluoro-7-(1-pyrrolyl)-1,8-naphthyridine-3-carboxylic acid]",4,8,1
"CCn1cc(C(=O)O)c(=O)c2ccc(-n3cccc3)cc21 [Example 1, 7-(1-pyrrolyl)-1-ethyl-1,4-dihydro-4-oxo-3-quinolinecarboxylic acid]",16,16,1
"CCn1cc(C(=O)O)c(=O)c2cc(F)c(-n3cccc3)cc21 [Example 2, 6-fluoro-7-(1-pyrrolyl)-1-ethyl-1,4-dihydro-4-oxo-3-quinolinecarboxylic acid]",4,4,0.5
"CCn1cc(C(=O)O)c(=O)c2ccc(-n3cccc3)nc21 [Example 3, 1-ethyl-1,4-dihydro-4-oxo-7-(1-pyrrolyl)-1,8-naphthyridine-3-carboxylic acid]",16,> 64,4
"CCn1cc(C(=O)O)c(=O)c2cnc(N3CCNCC3)nc21 [Pipemidic acid, reference compound]",16,16,2
